From ChEMBL document CHEMBL4130553, “Cornusides A-O, Bioactive Iridoid Glucoside Dimers from the Fruit of Cornus officinalis” (J Nat Prod, 2017)

System: HepG2
Assay: Cytotoxicity in human HepG2 cells assessed as reduction in cell viability incubated for 48 hrs by MTT assay
Assay type: cell-based
Conditions: hepg2, 48 h

SMILES	Activity
COC(=O)C1=CO[C@@H](O[C@@H]2O[C@H](CO)[C@@H](O)[C@H](O)[C@H]2O)[C@@H]2[C@H](C)[C@@H](O)C[C@H]12	Non-Toxic
COC(=O)C1=CO[C@@H](O[C@@H]2O[C@H](CO)[C@@H](O)[C@H](O)[C@H]2O)[C@@H]2[C@H](C)O[C@@H](OC)C[C@H]12	Non-Toxic
COC(=O)C1=CO[C@@H](O[C@@H]2O[C@H](CO)[C@@H](O)[C@H](O)[C@H]2O)[C@@H]2[C@H](C)O[C@H](OC)C[C@H]12	Non-Toxic
COC(=O)C1=CO[C@@H](O[C@@H]2O[C@H](CO)[C@@H](O)[C@H](O)[C@H]2O)[C@@H]2[C@H](C)O[C@H](O)C[C@H]12	Non-Toxic
COC(=O)C1=CO[C@@H](O[C@@H]2O[C@H](CO[C@@H]3C[C@@H]4C(C(=O)OC)=CO[C@@H](O[C@@H]5O[C@H](CO)[C@@H](O)[C@H](O)[C@H]5O)[C@@H]4[C@H](C)O3)[C@@H](O)[C@H](O)[C@H]2O)[C@@H]2[C@@H](C)[C@@H](O)C[C@H]12	Non-Toxic
CCO[C@@H]1C[C@@H]2C(C(=O)OC)=CO[C@@H](O[C@@H]3O[C@H](CO)[C@@H](O)[C@H](O)[C@H]3O)[C@@H]2[C@H](C)O1	Non-Toxic
COC(=O)C1=CO[C@@H](O[C@@H]2O[C@H](C)[C@@H](O)[C@H](O)[C@H]2O)[C@@H]2[C@H](C)O[C@@H](O[C@@H]3[C@@H](O)[C@H](O[C@@H]4OC=C(C(=O)OC)[C@H]5C[C@@H](OC)O[C@@H](C)[C@@H]45)O[C@H](CO)[C@H]3O)C[C@H]12	Non-Toxic
COC(=O)C1=CO[C@@H](O[C@@H]2O[C@H](CO)[C@@H](O)[C@H](O)[C@H]2O[C@@H]2C[C@@H]3C(C(=O)OC)=CO[C@@H](O[C@@H]4O[C@H](CO)[C@@H](O)[C@H](O)[C@H]4O)[C@@H]3[C@H](C)O2)[C@@H]2[C@@H](C)[C@@H](O)C[C@H]12	Non-Toxic
COC(=O)C1=CO[C@@H](O[C@@H]2O[C@H](C)[C@@H](O)[C@H](O)[C@H]2O)[C@@H]2[C@H](C)O[C@@H](O[C@H]3[C@H](O)[C@@H](O)[C@H](O[C@@H]4OC=C(C(=O)OC)[C@H]5C[C@H](OC)O[C@@H](C)[C@@H]45)O[C@@H]3CO)C[C@H]12	Non-Toxic
COC(=O)C1=CO[C@@H](O[C@@H]2O[C@H](CO)[C@@H](O)[C@H](O)[C@H]2O)[C@@H]2[C@H](C)O[C@H](O[C@H]3[C@H](O[C@@H]4OC=C(C(=O)OC)[C@H]5C[C@H](OC)O[C@@H](C)[C@@H]45)O[C@H](CO)[C@@H](O)[C@@H]3O)C[C@H]12	Non-Toxic
COC(=O)C1=CO[C@@H](O[C@@H]2O[C@H](CO)[C@@H](O)[C@H](O)[C@H]2O)[C@@H]2[C@@H](C)[C@@H](O[C@H]3C[C@@H]4C(C(=O)OC)=CO[C@@H](O[C@@H]5O[C@H](CO)[C@@H](O)[C@H](O)[C@H]5O)[C@@H]4[C@@H](C)O3)C[C@H]12	Non-Toxic
CCO[C@H]1C[C@@H]2C(C(=O)OC)=CO[C@@H](O[C@@H]3O[C@H](CO)[C@@H](O)[C@H](O)[C@H]3O)[C@@H]2[C@H](C)O1	Non-Toxic
COC(=O)C1=CO[C@@H](O[C@@H]2O[C@H](CO[C@@H]3C[C@@H]4C(C(=O)OC)=CO[C@@H](O[C@@H]5O[C@H](CO)[C@@H](O)[C@H](O)[C@H]5O)[C@@H]4[C@H](C)O3)[C@@H](O)[C@H](O)[C@H]2O)[C@@H]2[C@H](C)O[C@H](OC)C[C@H]12	Non-Toxic
COC(=O)C1=CO[C@@H](O[C@@H]2O[C@H](CO)[C@@H](O)[C@H](O)[C@H]2O)[C@@H]2[C@H](C)O[C@@H](O[C@H]3[C@H](O[C@@H]4OC=C(C(=O)OC)[C@H]5C[C@H](OC)O[C@@H](C)[C@@H]45)O[C@H](CO)[C@@H](O)[C@@H]3O)C[C@H]12	Non-Toxic
CCO[C@@H]1C[C@@H]2C(C(=O)OC)=CO[C@@H](O[C@@H]3O[C@H](CO[C@H]4C[C@@H]5C(C(=O)OC)=CO[C@@H](O[C@@H]6O[C@H](CO)[C@@H](O)[C@H](O)[C@H]6O)[C@@H]5[C@H](C)O4)[C@@H](O)[C@H](O)[C@H]3O)[C@@H]2[C@H](C)O1	Non-Toxic
COC(=O)C1=CO[C@@H](O[C@@H]2O[C@H](CO)[C@@H](O)[C@H](O)[C@H]2O)[C@@H]2[C@H](C)O[C@@H](OC[C@H]3O[C@@H](O[C@@H]4OC=C(C(=O)OC)[C@H]5C[C@@H](OC)O[C@@H](C)[C@@H]45)[C@H](O)[C@@H](O)[C@@H]3O)C[C@H]12	Non-Toxic
COC(=O)C1=CO[C@@H](O[C@@H]2O[C@H](CO[C@@H]3C[C@@H]4C(C(=O)OC)=CO[C@@H](O[C@@H]5O[C@H](CO)[C@@H](O)[C@H](O)[C@H]5O)[C@@H]4[C@H](C)O3)[C@@H](O)[C@H](O)[C@H]2O)[C@@H]2[C@H](C)O[C@@H](OC)C[C@H]12	Non-Toxic
COC(=O)C1=CO[C@@H](O[C@@H]2O[C@H](CO)[C@@H](O[C@H]3C[C@@H]4C(C(=O)OC)=CO[C@@H](O[C@@H]5O[C@H](C)[C@@H](O)[C@H](O)[C@H]5O)[C@@H]4[C@H](C)O3)[C@H](O)[C@H]2O)[C@@H]2[C@@H](C)[C@@H](O)C[C@H]12	Non-Toxic
COC(=O)C1=CO[C@@H](O[C@@H]2O[C@H](C)[C@@H](O)[C@H](O)[C@H]2O)[C@@H]2[C@H](C)O[C@@H](O[C@@H]3[C@@H](O)[C@H](O[C@@H]4OC=C(C(=O)OC)[C@H]5C[C@H](OC)O[C@@H](C)[C@@H]45)O[C@H](CO)[C@H]3O)C[C@H]12	Non-Toxic
COC(=O)C1=CO[C@@H](O[C@@H]2O[C@H](CO)[C@@H](O)[C@H](O)[C@H]2O)[C@@H]2[C@H](C)O[C@H](O[C@H]3[C@H](O[C@@H]4OC=C(C(=O)OC)[C@H]5C[C@@H](OC)O[C@@H](C)[C@@H]45)O[C@H](CO)[C@@H](O)[C@@H]3O)C[C@H]12	Non-Toxic
COC(=O)C1=CO[C@@H](O[C@@H]2O[C@H](CO[C@H]3C[C@@H]4C(C(=O)OC)=CO[C@@H](O[C@@H]5O[C@H](CO)[C@@H](O)[C@H](O)[C@H]5O)[C@@H]4[C@H](C)O3)[C@@H](O)[C@H](O)[C@H]2O)[C@@H]2[C@H](C)O[C@@H](OC)C[C@H]12	Non-Toxic
CCO[C@H]1C[C@@H]2C(C(=O)OC)=CO[C@@H](O[C@@H]3O[C@H](CO[C@H]4C[C@@H]5C(C(=O)OC)=CO[C@@H](O[C@@H]6O[C@H](CO)[C@@H](O)[C@H](O)[C@H]6O)[C@@H]5[C@H](C)O4)[C@@H](O)[C@H](O)[C@H]3O)[C@@H]2[C@H](C)O1	Non-Toxic
COC(=O)C1=CO[C@@H](O[C@@H]2O[C@H](CO)[C@@H](O)[C@H](O)[C@H]2O)[C@@H]2[C@@H](C)[C@@H](O)C[C@H]12 [LOGANIN]	Non-Toxic
COC(=O)C1=CO[C@@H](O[C@@H]2O[C@H](CO)[C@@H](O)[C@H](O)[C@H]2O)[C@@H]2[C@H](C)O[C@@H](O)C[C@H]12 [MORRONISIDE]	Non-Toxic
C=C[C@H]1[C@H](O[C@@H]2O[C@H](CO)[C@@H](O)[C@H](O)[C@H]2O)OC=C2C(=O)OCC[C@H]21 [SWEROSIDE]	Non-Toxic
